Measured values published in patent publication US11976051B1, “N′-(2-(5-(4-chlorophenyl)-1,3,4-oxadiazol-2-ylthio)acetoxy)-2-naphthimidamide as an antimicrobial compound” (KING FAISAL UNIVERSITY, priority 2023, dated 2024).

Key:
Bacillus cereus = assay: Agar plate disc-diffusion, antibacterial activity; assay type: cell-based; conditions: nutrient agar, 37° C., 48 h
Description: (§1) The agar plate disc-diffusion method was applied. […] The discs were then placed onto the surface of agar plates (nutrient agar for bacteria and Sabouraud's dextrose agar for fungi) seeded with the test organism. Each plate contained 15 mL of the agar medium, previously seeded with 0.2 mL of the broth culture of each organism pregrown for 18 h. The plates were incubated at 37° C. for 48 h, and 72 h for fungi. The inhibition zones was measured in mm. Discs impregnated with DMSO were used as a control, and its inhibition zone was subtracted from the tested compound actual inhibition zone.
(§2) The antibacterial activity was screened against gram positive bacteria namely Bacillus cereus and Staphylococcus aureus and gram-negative bacterial strains namely Pseudomonas aeruginosa and Escherichia coli, while the antifungal activity was screened against Aspergillus flavus and Chrysosporium keratinophilum as shown in Table 1 and 2.

Pseudomonas aeruginosa = assay: Agar plate disc-diffusion, antibacterial activity; assay type: cell-based; conditions: nutrient agar, 37° C., 48 h
Description: as §1, §2

Staphylococcus aureus = assay: Agar plate disc-diffusion, antibacterial activity; assay type: cell-based; conditions: nutrient agar, 37° C., 48 h
Description: as §1, §2

Escherichia coli = assay: Agar plate disc-diffusion, antibacterial activity; assay type: cell-based; conditions: nutrient agar, 37° C., 48 h
Description: (§3) The agar plate disc-diffusion method was applied. Sterilized filter papers (6 mm in diameter) were wetted with […] of a solution of N′-(2-(5-(4-chlorophenyl)-1,3,4-oxadiazol-2-ylthio)acetoxy)-2-naphthimidamide (3) to be tested, containing 10 mg/mL in DMSO, and the discs were allowed to air dry. The discs were then placed onto the surface of agar plates (nutrient agar for bacteria and Sabouraud's dextrose agar for fungi) seeded with the test organism. Each plate contained 15 mL of the agar medium, previously seeded with 0.2 mL of the broth culture of each organism pregrown for 18 h. The plates were incubated at 37° C. for 48 h, and 72 h for fungi. The inhibition zones was measured in mm. Discs impregnated with DMSO were used as a control, and its inhibition zone was subtracted from the tested compound actual inhibition zone.
as §2

Aspergillus flavus = assay: Agar plate disc-diffusion, antifungal activity; assay type: cell-based; conditions: Sabouraud's dextrose agar, 72 h
Description: as §3, §2

[1] = tested on: Chrysosporium keratinophilum; assay: Agar plate disc-diffusion, antifungal activity; assay type: cell-based; conditions: Sabouraud's dextrose agar, 72 h
Description: as §1, §2

[2] = A = concentration of comp. = 10 mg/mL
[3] = B = concentration of comp. = 30,000 μL
[4] = C = concentration of comp. = 50,000 μL
[5] = A = concentration of comp. = 10,000 μg/mL

N/C(=N\OC(=O)CSc1nnc(-c2ccc(Cl)cc2)o1)c1ccc2ccccc2c1 [Compound 3, N′-(2-(5-(4-chlorophenyl)-1,3,4-oxadiazol-2-ylthio)acetoxy)-2-naphthimidamide]
inhibition zone, Bacillus Cereus (Bacillus cereus; [2]): 31 mm
inhibition zone, Bacillus Cereus (Bacillus cereus; [3]): 36 mm
inhibition zone, Bacillus Cereus (Bacillus cereus; [4]): 43 mm
inhibition zone, Pseudomonas aeruginosa (Pseudomonas aeruginosa; [2]): 26 mm
inhibition zone, Pseudomonas aeruginosa (Pseudomonas aeruginosa; [3]): 33 mm
inhibition zone, Pseudomonas aeruginosa (Pseudomonas aeruginosa; [4]): 39 mm
inhibition zone, Staphylococcus aureus (Staphylococcus aureus; [2]): 17 mm
inhibition zone, Staphylococcus aureus (Staphylococcus aureus; [3]): 24 mm
inhibition zone, Staphylococcus aureus (Staphylococcus aureus; [4]): 29 mm
inhibition zone, Escherichia coli (Escherichia coli; [5]): 35 mm
inhibition zone, Escherichia coli (Escherichia coli; [3]): 41 mm
inhibition zone, Escherichia coli (Escherichia coli; [4]): 47 mm
inhibition zone, Aspergillus flavus (Aspergillus flavus; A = concentration of comp. = 10,000 μL): 25 mm
inhibition zone, Aspergillus flavus (Aspergillus flavus; [3]): 28 mm
inhibition zone, Aspergillus flavus (Aspergillus flavus; [4]): 37 mm
inhibition zone, Chrysosporium keratinophilum [1, 5]: 23 mm
inhibition zone, Chrysosporium keratinophilum [1, 3]: 29 mm
inhibition zone, Chrysosporium keratinophilum [1, 4]: 38 mm
melting point: 181 to 182 °C
